This is an account of results in US7741354B2, “Inhibitors of glutaminyl cyclase” (Probiodrug AG, priority 2006, dated 2010).

Usually IC50 stands for the concentration that inhibits the measured activity by half.

Like-named read-outs stand apart in the source and are kept apart here.

In the test the target is hQC (Homo sapiens, UniProt Q16769). Nature of the test: Fluorometric (fluorescent) assay of hQC inhibition, IC50. Type of test: biochemical. In a few lines: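 Two coupled fluorometric formats at 30° C, pH 8.0 Tris/HCl with EDTA: H-Gln-βNA at 0.2 mM read at 320/410 nm, or H-Gln-AMC at varied levels read at 380/460 nm, each started by adding QC.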
Chain of hQC (Q16769 29-361): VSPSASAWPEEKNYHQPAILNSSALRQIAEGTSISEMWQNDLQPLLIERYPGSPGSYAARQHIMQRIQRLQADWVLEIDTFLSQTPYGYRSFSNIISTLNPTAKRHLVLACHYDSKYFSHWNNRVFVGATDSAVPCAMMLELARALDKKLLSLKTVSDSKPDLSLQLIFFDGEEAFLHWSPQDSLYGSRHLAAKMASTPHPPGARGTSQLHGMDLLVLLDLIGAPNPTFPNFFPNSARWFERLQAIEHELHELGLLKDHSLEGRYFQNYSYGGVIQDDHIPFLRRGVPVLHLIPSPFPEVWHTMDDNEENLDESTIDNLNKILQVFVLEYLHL

Consider `O=[N+]([O-])c1cc(C(Nc2ccc3[nH]cnc3c2)c2nnnn2Cc2ccccc2Cl)ccc1Cl` (centres unmarked) [compound 148, (1H-Benzoimidazol-5-yl)-[[1-(2-chloro-benzyl)-1H-tetrazol-5-yl]-(4-chloro-3-nitro-phenyl)-methyl]-amine], for which the 50% inhibitory concentration (IC50) (hQC inhibition, read-out: IC50) is 1.3 µM.
Take `c1ccc(C(c2ccccc2)n2nnnc2C(Nc2ccc3[nH]cnc3c2)c2ccc3nsnc3c2)cc1` (centres unmarked) [compound 112, [(1-Benzhydryl-1H-tetrazol-5-yl)-benzo[c][1,2,5]thia-diazol-5-yl-methyl]-(1H-benzoimidazol-5-yl)-amine]: under “read-out: IC50”, the IC50 came out at 5.8 µM.
As for `O=C(Cn1nnnc1C(Nc1ccc2[nH]cnc2c1)c1ccc(Br)cc1)NCCc1c[nH]c2ccccc12` (centres unmarked) [compound 200, 2-{5-[(1H-Benzoimidazol-5-ylamino)-(4-bromo-phenyl)-methyl]-tetrazol-1-yl}-N-[2-(1H-indol-3-yl)-ethyl]-acetamide], the IC50 (hQC inhibition, read-out: IC50) was 2.2 µM.
Consider `CCCC(C)C(Nc1ccc2[nH]cnc2c1)c1nnnn1CC(=O)N1CCc2ccccc2C1` (centres unmarked) [compound 98, 2-{5-[1-(1H-Benzoimidazol-5-ylamino)-2-methyl-pentyl]-tetrazol-1-yl}-1-(3,4-dihydro-1H-isoquinolin-2-yl)-ethanone], for which, where the note is “read-out: IC50”, the 50% inhibitory concentration (IC50) is 6.7 µM.
Take `COc1ccccc1C(Nc1ccc2[nH]cnc2c1)c1nnnn1Cc1ccccc1Cl` (centres unmarked) [compound 153]: under “hQC inhibition, read-out: IC50”, the IC50 was 3.1 µM.
With `COc1ncc(C(NCCCn2ccnc2)c2nnnn2C(C)(C)C)c(OC)n1` (centres unmarked) [compound 62, [(1-tert-Butyl-1H-tetrazol-5-yl)-(2,4-dimethoxy-pyrimidin-5-yl)-methyl]-(3-imidazol-1-yl-propyl)-amine], under “read-out: IC50”, the 50% inhibitory concentration (IC50) is 8.5 µM.
Same read-out and setting: the same measure for `COc1ccc(C(Nc2ccc3[nH]cnc3c2)c2nnnn2Cc2ccccc2Cl)c(C)c1` (centres unmarked) [compound 77, (1H-Benzoimidazol-5-yl)-[[1-(2-chloro-benzyl)-1H-tetrazol-5-yl]-(4-methoxy-2-methyl-phenyl)-methyl]-amine]: 1.3 µM.
Regarding `O=C1CCCN1CCCn1nnnc1C(Nc1ccc2[nH]cnc2c1)c1ccc(Br)cc1` (centres unmarked) [compound 194, 1-(3-{5-[(1H-Benzoimidazol-5-ylamino)-(4-bromo-phenyl)-methyl]-tetrazol-1-yl}-propyl)-pyrrolidn-2-one], the IC50 (hQC inhibition, read-out: IC50) stood at 8.5 µM.
Turning to `Clc1ccc(Cn2nnnc2C(NCCCn2ccnc2)c2ccc3ccccc3n2)cc1` (centres unmarked) [compound 7, {[1-(4-Chloro-benzyl)-1H-tetrazol-5-yl]-quinolin-2-yl-methyl}-(3-imidazol-1-yl-propyl)-amine], the half-inhibitory concentration (IC50) (read-out: IC50) amounted to 1.3 µM.
`C1=COC(C(NCCCn2ccnc2)c2nnnn2C2CCCC2)CC1` (centres unmarked) [Compound 28, [(1-Cyclopentyl-1H-tetrazol-5-yl)-(3,4-dihydro-2H-pyran-2-yl)-methyl]-(3-imidazol-1-yl-propyl)-amine]: the 50% inhibitory concentration (IC50) (purified compound from preparative synthesis, fluorescent assay, read-out: IC50 hQC) came out at 3.47 µM and the IC50 (read-out: IC50) stood at 0.4 µM.
For `CCc1ccc(C(Nc2ccc3[nH]cnc3c2)c2nnnn2CC2CCCO2)s1` (centres unmarked) [compound 129, (1H-Benzoimidazol-5-yl)-{(5-ethyl-thiophen-2-yl)-[1-(tetrahydro-furan-2-ylmethyl)-1H-tetrazol-5-yl]-methyl}-amine], the IC50 (hQC inhibition, read-out: IC50) came out at 8.5 µM.
Take `Cc1ccc2c(C(Nc3ccc4[nH]cnc4c3)c3nnnn3CC3CCCO3)c[nH]c2c1` (centres unmarked) [compound 80, (1H-Benzoimidazol-5-yl)-{(6-methyl-1H-indol-3-yl)-[1-(tetrahydro-furan-2-ylmethyl)-1H-tetrazol-5-yl]-methyl}-amine]: for the setting “read-out: IC50”, the 50% inhibitory concentration (IC50) stood at 6.7 µM.
On the same count and under the same terms, the same measure for `CCCOc1cccc(C(Nc2ccc3[nH]cnc3c2)c2nnnn2Cc2cccnc2)c1` (centres unmarked) [compound 74, (1H-Benzoimidazol-5-yl)-[(3-propoxy-phenyl)-(1-pyridin-3-ylmethyl-1H-tetrazol-5-yl)-methyl]-amine]: 2.2 µM.
For `c1nc2cc(NC(c3ccc4c(c3)OCO4)c3nnnn3CC3CCCO3)ccc2[nH]1` (centres unmarked) [compound 118], the half-maximal inhibitory concentration (IC50) (hQC inhibition, read-out: IC50) stood at 6.7 µM.
Regarding `CCOC(=O)C1CC1C(Nc1ccc2[nH]cnc2c1)c1nnnn1CCc1cccs1` (centres unmarked) [compound 104], the IC50 (read-out: IC50) was determined as 4 µM.
Regarding `O=c1c(C(Nc2ccc3[nH]cnc3c2)c2nnnn2CC2CCCO2)coc2ccccc12` (centres unmarked) [compound 159, 3-{(1H-Benzoimidazol-5-ylamino)-[1-(tetrahydro-furan-2-ylmethyl)-1H-tetrazol-5-yl]-mthyl}-chromen-4-one], the IC50 (hQC inhibition, read-out: IC50) is 9.4 µM.
Turning to `COc1ccc(C(Nc2ccc3[nH]cnc3c2)c2nnnn2CC2CCCO2)cc1Br` (centres unmarked) [compound 109, (1H-Benzoimidazol-5-yl)-{(3-bromo-4-methoxy-phenyl)-[1-(tetrahydro-furan-2-ylmethyl)-1H-tetrazol-5-yl]-methyl}-amine], for the setting “read-out: IC50”, the half-maximal inhibitory concentration (IC50) was 1.3 µM.
The same measure, in the same setting: the figure for `CC(c1ccccc1)C(Nc1ccc2[nH]cnc2c1)c1nnnn1CC1CCCO1` (centres unmarked) [compound 100, (1H-Benzoimidazol-5-yl)-{2-phenyl-1-[1-(tetrahydro-furan-2-ylmethyl)-1H-tetrazol-5-yl]-propyl}-amine] is 7.6 µM.
For the compound `CC(Cc1ccc2c(c1)OCO2)C(Nc1ccc2[nH]cnc2c1)c1nnnn1CC1CCCO1` (centres unmarked) [compound 93, {3-Benzo[1,3]dioxol-5-yl-2-methyl-1-[1-(tetrahydro-furan-2-ylmethyl)-1H-tetrazol-5-yl]-propyl}-(1H-benzoimidazol-5-yl)-amine], the IC50 (read-out: IC50) was determined as 7.6 µM.
